Source: ChEMBL document CHEMBL1128615, “Design, synthesis and evaluation of novel bismustard cross-linked lexitropsins” (1995)

What was measured:
[1] = test system: Nucleic Acid; experiment: Compound was evaluated for binding affinity to calf thymus DNA using ethidium displacement assay; format: nucleic-acid assay; conditions: Bos taurus
[2] = test system: Nucleic Acid; experiment: Compound was evaluated for binding affinity to alternating poly(dA)-poly(dT) polymer using ethidium displacement assay; format: nucleic-acid assay
[3] = test system: KB; experiment: Compound was evaluated for cytotoxicity measured as TD50; format: functional; conditions: Homo sapiens, read-out: TD50 (the source's name)
[4] = test system: Nucleic Acid; experiment: Compound was evaluated for binding affinity to poly(dG-dC) polymer using ethidium displacement assay; format: nucleic-acid assay
[5] = test system: Nucleic Acid; experiment: Compound was evaluated for its binding affinity to homo poly(dA-dT) polymer using ethidium displacement assay; format: nucleic-acid assay
[6] = test system: Nucleic Acid; experiment: Compound was evaluated for its ability of alkylation of DNA; format: nucleic-acid assay; conditions: Bos taurus
[7] = test system: Nucleic Acid; experiment: Binding affinity to alternating poly(dA)-poly(dT) polymer using ethidium displacement assay; format: nucleic-acid assay; conditions: Bos taurus
[8] = test system: Nucleic Acid; experiment: Compound was evaluated for binding affinity to homo poly(dA-dT) polymer using ethidium displacement assay; format: nucleic-acid assay

| SMILES | C50 [1] [µM] | Kb [1] [M⁻¹] | C50 [2] [µM] | CC50 [3] [µM] | C50 [4] [µM] | Kb [4] [M⁻¹] | C50 [5] [µM] | Alkylation [6] [%] | Kb [7] [M⁻¹] | Kb [8] [M⁻¹] |
| --- | --- | --- | --- | --- | --- | --- | --- | --- | --- | --- |
| CN(C)CCCNC(=O)c1cc(NC(=O)c2cc(NC(=O)c3ccc(N(CCCl)CCCl)cc3)cn2CCCCCCCCCn2cc(NC(=O)c3ccc(N(CCCl)CCCl)cc3)cc2C(=O)Nc2cc(C(=O)NCCCN(C)C)n(C)c2)cn1C | 1.74 | 3.2e+06 | 1.31 | > 79.2 | 1.97 | 1.04e+07 | 1.3 | 6.7 | – | – |
| CN(C)CCCNC(=O)c1cc(NC(=O)c2cc(NC(=O)c3ccc(N(CCCl)CCCl)cc3)cn2CCCCCCCCCCCCn2cc(NC(=O)c3ccc(N(CCCl)CCCl)cc3)cc2C(=O)Nc2cc(C(=O)NCCCN(C)C)n(C)c2)cn1C | 3.17 | 1.73e+06 | 1.31 | 36.3 | 2.11 | 9.66e+06 | 1.06 | – | – | – |
| CN(C)CCCNC(=O)c1cc(NC(=O)c2cc(NC(=O)c3ccc(N(CCCl)CCCl)cc3)cn2CCCCCCCCCCn2cc(NC(=O)c3ccc(N(CCCl)CCCl)cc3)cc2C(=O)Nc2cc(C(=O)NCCCN(C)C)n(C)c2)cn1C | 2.02 | 2.74e+06 | 1.1 | 44.2 | 1.96 | 1.04e+07 | 1.78 | 7.3 | – | – |
| CN(C)CCCNC(=O)c1cc(NC(=O)c2cc(NC(=O)c3ccc(N(CCCl)CCCl)cc3)cn2CCCCCCCCn2cc(NC(=O)c3ccc(N(CCCl)CCCl)cc3)cc2C(=O)Nc2cc(C(=O)NCCCN(C)C)n(C)c2)cn1C | 1.02 | 5.6e+06 | 0.535 | > 79.2 | 1.64 | 1.25e+07 | 0.802 | 7.1 | – | – |
| CN(C)CCCNC(=O)c1cc(NC(=O)c2cc(NC(=O)c3ccc(N(CCCl)CCCl)cc3)cn2C)cn1C | 5.1 | 1.07e+06 | 0.199 | 5 | 11 | 1.81e+06 | 2.85 | 11 | 6.06e+06 | 3.41e+06 |
| CN(C)CCCNC(=O)c1cc(NC(=O)c2cc(NC(=O)c3ccc(N(CCCl)CCCl)cc3)cn2CCCCCCCCCCCn2cc(NC(=O)c3ccc(N(CCCl)CCCl)cc3)cc2C(=O)Nc2cc(C(=O)NCCCN(C)C)n(C)c2)cn1C | 1.63 | 3.42e+06 | 1.2 | 35.8 | 2.46 | 8.25e+06 | 1.1 | 12 | – | – |
